Molecular target: T1, human 5-HT2A receptor (Homo sapiens, UniProt P28223)
T1 construct: expressed in transfected cells; host or cells: COS7 cells, transient transfection, pCMV vector; crude membranes
Assay: [125I]DOI radioligand binding assay
Details: 0.5 nM [125I]DOI, membranes of COS7 cells transfected with human 5-HT2A receptor
Description: Crude membrane pellets were stored at −80° C. until used for radioligand binding assays.

T1 sequence (P28223 whole entry): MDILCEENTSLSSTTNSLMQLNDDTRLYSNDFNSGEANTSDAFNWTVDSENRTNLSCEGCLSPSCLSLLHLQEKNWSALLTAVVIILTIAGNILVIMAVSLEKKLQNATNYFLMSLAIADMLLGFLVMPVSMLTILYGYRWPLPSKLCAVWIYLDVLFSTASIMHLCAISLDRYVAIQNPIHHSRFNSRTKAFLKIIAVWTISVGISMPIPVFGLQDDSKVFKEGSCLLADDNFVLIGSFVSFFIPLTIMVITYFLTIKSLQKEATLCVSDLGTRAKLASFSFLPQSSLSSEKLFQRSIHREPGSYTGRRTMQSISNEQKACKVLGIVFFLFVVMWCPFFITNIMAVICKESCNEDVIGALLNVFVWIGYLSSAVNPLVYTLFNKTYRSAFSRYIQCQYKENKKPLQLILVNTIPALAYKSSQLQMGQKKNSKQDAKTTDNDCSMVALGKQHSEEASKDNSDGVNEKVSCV

SMILES	IC50
Cn1nccc1-c1cc(NC(=O)NCc2ccc(Cl)cc2)ccc1OCCN1CCCCC1 [Compound 45, 1-(4-Chloro-benzyl)-3-[3-(2-methyl-2H-pyrazol-3-yl)-4-(2-piperidin-1-yl-ethoxy)-phenyl]-urea]	0.0102 µM
CC(C)COC(=O)Nc1ccc(OCCN2CCCC2)c(-c2c(Br)cnn2C)c1 [Compound 23, [3-(4-Bromo-2-methyl-2H-pyrazol-3-yl)-4-(2-pyrrolidin-1-yl-ethoxy)-phenyl]-carbamic acid isobutyl ester]	0.0011 µM
Cn1nccc1-c1cc(NC(=O)Cc2ccc(F)cc2)ccc1OCCN1CCOCC1 [Compound 160, 2-(4-Fluoro-phenyl)-N-[3-(2-methyl-2H-pyrazol-3-yl)-4-(2-morpholin-4-yl-ethoxy)-phenyl]-acetamide]	0.0137 µM

From patent US20070244086A1, “3-Phenyl-Pyrazole Derivatives as Modulators of the 5-Ht2A Serotonin Receptor Useful for the Treatment of Disorders Related Thereto” (Arena Pharmaceuticals, Inc., priority 2004, published 2007)
